From patent publication US10149876B2, “Tripterygium wilfordii extracts to overcome chemotherapy resistance” (WESTERN UNIVERSITY OF HEALTH SCIENCES, priority 2012, dated 2018)
“And” between values parts separate entries of the source, which are not always exact repeats. Equal entries are not always repeated. Where two headings read alike, the source gives them in different places.

How the values were obtained:
Assay type in all cases: cell-based, human
BT474-TxR cells = assay: SRB cell viability assay, Herceptin-resistant BT474-TxR cells; conditions: for viability at 0.001 µM / viability at 0.02 µM / viability at 0.067 µM / viability at 0.2 µM / viability at 0.67 µM / viability at 2 µM / viability at 6.7 µM / viability at 20 µM / IC50: Homo sapiens; for viability at 0.001 µM / viability at 0.02 µM / viability at 0.067 µM / viability at 0.2 µM / viability at 0.67 µM / viability at 2 µM / viability at 6.7 µM / viability at 20 µM / mean A at 565 nm: 72 h; for IC50: lapatinib, BT474-TxR
Experimental: PC3-TxR cells were plated into sterile, F-bottom Cellstar® 96 well cell culture plates with lids (Cat #655180, Purchased from Greiner Bio-one, Monroe, N.C.) by placing into each well, 100 μl of medium containing 3000 cells in RPMI 1640 supplemented with 10% fetal bovine serum (Thermo Scientific, Logan, Utah) and a solution of penicillin (100 U/ml) and streptomycin (100 μg/ml) (Life Technologies Grand Island, N.Y.). The cells were at passage 52 at the time of plating. Triplicate wells were assigned to each experimental condition tested, and a 24 hour recovery period for the cells following the seeding of the wells was allowed. During the recovery period, the cells were incubated at 37° C. and 5% CO2.
The LGT-E was prepared by adding an appropriate amount of LGT-E powder to DMSO to form a 500 mg/ml stock solution. The stock solution was alternately vortexed and sonicated until the LGT-E powder went into solution. The stock solution was diluted in RPMI 1640 medium (Mediatech, Manassas, Va., or Life Technologies Grand Island, NY) to reach the desired concentrations of LGT-E (e.g., 12, 25, or 60 μg/ml).
Pretreatment of the cells with LGT-E was carried out by aspirating the media from the wells, followed by adding 50 μl of LGT-E solution containing concentrations of either 12 or 25 μg/ml of LGT-E solution and incubation of the cells for two hours under conditions of 37° C. and 5% CO2.
Media was aspirated from each well, and replaced with a 10% solution of cold trichloroacetic acid (TCA) (Cat #: T6399, purchased from Sigma-Aldrich), and incubated for one hour at 4° C. After the TCA incubation, the TCA solution was aspirated, and the cells were washed five times with tap water. After removing the last wash, the plates were left with lids off at room temperature until the surfaces were dry, which took one to two hours. Then 50 μl of a 0.4% solution of sul-forhodamine B (SRB) sodium salt (Cat #: S9012, purchased from Sigma-Aldrich) was added to each well and the plates were incubated at room temperature for 20 to 30 minutes. Afterwards, the wells were washed five times with a 1% acetic acid solution in 10 mM TRIS base (Cat#: 161-0719, purchased from Bio-Rad Laboratories, Hercules, Calif.). The plates were subsequently left to dry for several hours or overnight. SRB that remained in the dried wells was solubilized by adding 100 μl of SRB solubilization solution (10 mM TRIS base) to each well, and placing the plates either on a gently-moving shaker or letting the plates remain stationary at room temperature until the SRB dissolves, which takes about five to ten minutes. The amount of SRB in each well, which correlated directly to the number of living cells at fixation, was determined spectrophotometrically at an absorbance of 565 nm by a microplate reader.

SkBr3 cells = assay: SRB cell viability assay, lapatinib-sensitive SkBr3 cells; conditions: for mean A at 565 nm: no chemosensitizing pre-treatment, background = 0.047
Experimental: (§1) Cell culture of the above cell lines was performed as described in Example 2, except that 5,000, rather than 3,000 cells were plated per well for the K562, K562/Dox, BT474, SkBr3 lines.
(§2) Table 17 also contains the serially-diluted concentrations of drugs that each cell line was tested against.
FIG. 13 summarizes the data of Tables 32-33 in a graphical format.

BT474 cells = assay: SRB cell viability assay, Herceptin-sensitive BT474 cells; conditions: for mean A at 565 nm: 72 h, background = 0.046
Experimental: as §1, §2

SMILES: CS(=O)(=O)CCNCc1ccc(-c2ccc3ncnc(Nc4ccc(OCc5cccc(F)c5)c(Cl)c4)c3c2)o1 [lapatinib]
- viability at 0.001 µM (BT474-TxR cells; Lapatinib 0.001 μM, no LGT-E pre-treatment (control to Table 28)): 100%
- viability at 0.001 µM (BT474-TxR cells; Lapatinib 0.001 μM, no LGT-E pre-treatment (control to Table 30)): 100%
- viability at 0.001 µM (BT474-TxR cells; Lapatinib 0.001 μM, pre-treated with 25 μg/ml LGT-E): 100%
- viability at 0.001 µM (BT474-TxR cells; Lapatinib 0.001 μM, pre-treated with […] LGT-E): 100%
- viability at 0.02 µM (BT474-TxR cells; Lapatinib 0.02 μM, no LGT-E pre-treatment (control to Table 28)): 97.3%
- viability at 0.02 µM (BT474-TxR cells; Lapatinib 0.02 μM, no LGT-E pre-treatment (control to Table 30)): 82.6%
- viability at 0.02 µM (BT474-TxR cells; Lapatinib 0.02 μM, pre-treated with 25 μg/ml LGT-E): 85.8%
- viability at 0.02 µM (BT474-TxR cells; Lapatinib 0.02 μM, pre-treated with […] LGT-E): 94%
- viability at 0.067 µM (BT474-TxR cells; Lapatinib 0.067 μM, no LGT-E pre-treatment (control to Table 28)): 97.6%
- viability at 0.067 µM (BT474-TxR cells; Lapatinib 0.067 μM, no LGT-E pre-treatment (control to Table 30)): 91.8%
- viability at 0.067 µM (BT474-TxR cells; Lapatinib 0.067 μM, pre-treated with 25 μg/ml LGT-E): 77.3%
- viability at 0.067 µM (BT474-TxR cells; Lapatinib 0.067 μM, pre-treated with […] LGT-E): 91.3%
- viability at 0.2 µM (BT474-TxR cells; Lapatinib 0.2 μM, no LGT-E pre-treatment (control to Table 28)): 84.7%
- viability at 0.2 µM (BT474-TxR cells; Lapatinib 0.2 μM, no LGT-E pre-treatment (control to Table 30)): 76.9%
- viability at 0.2 µM (BT474-TxR cells; Lapatinib 0.2 μM, pre-treated with 25 μg/ml LGT-E): 67.9%
- viability at 0.2 µM (BT474-TxR cells; Lapatinib 0.2 μM, pre-treated with […] LGT-E): 70.9%
- viability at 0.67 µM (BT474-TxR cells; Lapatinib 0.67 μM, no LGT-E pre-treatment (control to Table 28)): 68.7%
- viability at 0.67 µM (BT474-TxR cells; Lapatinib 0.67 μM, no LGT-E pre-treatment (control to Table 30)): 70.5%
- viability at 0.67 µM (BT474-TxR cells; Lapatinib 0.67 μM, pre-treated with 25 μg/ml LGT-E): 57.4%
- viability at 0.67 µM (BT474-TxR cells; Lapatinib 0.67 μM, pre-treated with […] LGT-E): 59.9%
- viability at 2 µM (BT474-TxR cells; Lapatinib 2 μM, no LGT-E pre-treatment (control to Table 28)): 65.2%
- viability at 2 µM (BT474-TxR cells; Lapatinib 2 μM, no LGT-E pre-treatment (control to Table 30)): 60.6%
- viability at 2 µM (BT474-TxR cells; Lapatinib 2 μM, pre-treated with 25 μg/ml LGT-E): 50.4%
- viability at 2 µM (BT474-TxR cells; Lapatinib 2 μM, pre-treated with […] LGT-E): 53.5%
- viability at 6.7 µM (BT474-TxR cells; Lapatinib 6.7 μM, no LGT-E pre-treatment (control to Table 28)): 59.4%
- viability at 6.7 µM (BT474-TxR cells; Lapatinib 6.7 μM, no LGT-E pre-treatment (control to Table 30)): 55.1%
- viability at 6.7 µM (BT474-TxR cells; Lapatinib 6.7 μM, pre-treated with 25 μg/ml LGT-E): 37.1%
- viability at 6.7 µM (BT474-TxR cells; Lapatinib 6.7 μM, pre-treated with […] LGT-E): 46.3%
- viability at 20 µM (BT474-TxR cells; Lapatinib 20 μM, no LGT-E pre-treatment (control to Table 28)): 52.3%
- viability at 20 µM (BT474-TxR cells; Lapatinib 20 μM, no LGT-E pre-treatment (control to Table 30)): 43.8%
- viability at 20 µM (BT474-TxR cells; Lapatinib 20 μM, pre-treated with 25 μg/ml LGT-E): 24.9%
- viability at 20 µM (BT474-TxR cells; Lapatinib 20 μM, pre-treated with […] LGT-E): 40.6%
- IC50 (BT474-TxR cells; LGT-E 25 μg/ml pre-treatment, read-out: IC50 of drug when cells pre-treated with Chemosensitizing Agent before drug treatment): 2 µM and 1.16 µg/mL
- IC50 (BT474-TxR cells; line of LGT-E 25 μg/ml, read-out: IC50 of drug when cells treated with drug only): 11 µM and 6.39 µg/mL
- mean A at 565 nm (BT474-TxR cells; Lapatinib 0.001 μM, no LGT-E pre-treatment (control to Table 28), background = 0.045): 1.135
- mean A at 565 nm (BT474-TxR cells; Lapatinib 0.001 μM, no LGT-E pre-treatment (control to Table 30), background = 0.047): 1.176
- mean A at 565 nm (BT474-TxR cells; Lapatinib 0.001 μM, pre-treated with 25 μg/ml LGT-E, background = 0.047): 0.957
- mean A at 565 nm (BT474-TxR cells; Lapatinib 0.001 μM, pre-treated with […] LGT-E, background = 0.045): 0.997
- mean A at 565 nm (BT474-TxR cells; Lapatinib 0.02 μM, no LGT-E pre-treatment (control to Table 28), background = 0.045): 1.104
- mean A at 565 nm (BT474-TxR cells; Lapatinib 0.02 μM, no LGT-E pre-treatment (control to Table 30), background = 0.047): 0.971
- mean A at 565 nm (BT474-TxR cells; Lapatinib 0.02 μM, pre-treated with 25 μg/ml LGT-E, background = 0.047): 0.821
- mean A at 565 nm (BT474-TxR cells; Lapatinib 0.02 μM, pre-treated with […] LGT-E, background = 0.045): 0.937
- mean A at 565 nm (BT474-TxR cells; Lapatinib 0.067 μM, no LGT-E pre-treatment (control to Table 30), background = 0.047): 1.079
- mean A at 565 nm (BT474-TxR cells; Lapatinib 0.067 μM, pre-treated with 25 μg/ml LGT-E, background = 0.047): 0.740
- mean A at 565 nm (BT474-TxR cells; Lapatinib 0.067 μM, pre-treated with […] LGT-E, background = 0.045): 0.911
- mean A at 565 nm (BT474-TxR cells; Lapatinib 0.2 μM, no LGT-E pre-treatment (control to Table 28), background = 0.045): 0.961
- mean A at 565 nm (BT474-TxR cells; Lapatinib 0.2 μM, no LGT-E pre-treatment (control to Table 30), background = 0.047): 0.905
- mean A at 565 nm (BT474-TxR cells; Lapatinib 0.2 μM, pre-treated with 25 μg/ml LGT-E, background = 0.047): 0.650
- mean A at 565 nm (BT474-TxR cells; Lapatinib 0.2 μM, pre-treated with […] LGT-E, background = 0.045): 0.707
- mean A at 565 nm (BT474-TxR cells; Lapatinib 0.67 μM, no LGT-E pre-treatment (control to Table 28), background = 0.045): 0.780
- mean A at 565 nm (BT474-TxR cells; Lapatinib 0.67 μM, no LGT-E pre-treatment (control to Table 30), background = 0.047): 0.829
- mean A at 565 nm (BT474-TxR cells; Lapatinib 0.67 μM, pre-treated with 25 μg/ml LGT-E, background = 0.047): 0.549
- mean A at 565 nm (BT474-TxR cells; Lapatinib 0.67 μM, pre-treated with […] LGT-E, background = 0.045): 0.598
- mean A at 565 nm (BT474-TxR cells; Lapatinib 2 μM, no LGT-E pre-treatment (control to Table 28), background = 0.045): 0.739
- mean A at 565 nm (BT474-TxR cells; Lapatinib 2 μM, no LGT-E pre-treatment (control to Table 30), background = 0.047): 0.712
- mean A at 565 nm (BT474-TxR cells; Lapatinib 2 μM, pre-treated with 25 μg/ml LGT-E, background = 0.047): 0.482
- mean A at 565 nm (BT474-TxR cells; Lapatinib 2 μM, pre-treated with […] LGT-E, background = 0.045): 0.533
- mean A at 565 nm (BT474-TxR cells; Lapatinib 6.7 μM, no LGT-E pre-treatment (control to Table 28), background = 0.045): 0.674
- mean A at 565 nm (BT474-TxR cells; Lapatinib 6.7 μM, no LGT-E pre-treatment (control to Table 30), background = 0.047): 0.648
- mean A at 565 nm (BT474-TxR cells; Lapatinib 6.7 μM, pre-treated with 25 μg/ml LGT-E, background = 0.047): 0.355
- mean A at 565 nm (BT474-TxR cells; Lapatinib 6.7 μM, pre-treated with […] LGT-E, background = 0.045): 0.461
- mean A at 565 nm (BT474-TxR cells; Lapatinib 20 μM, no LGT-E pre-treatment (control to Table 28), background = 0.045): 0.594
- mean A at 565 nm (BT474-TxR cells; Lapatinib 20 μM, no LGT-E pre-treatment (control to Table 30), background = 0.047): 0.515
- mean A at 565 nm (BT474-TxR cells; Lapatinib 20 μM, pre-treated with 25 μg/ml LGT-E, background = 0.047): 0.239
- mean A at 565 nm (BT474-TxR cells; Lapatinib 20 μM, pre-treated with […] LGT-E, background = 0.045): 0.405
- IC50 (SkBr3 cells; Homo sapiens, SK-BR-3, read-out: IC50 of drug when cells treated with drug only): 241 nM and 0.14 µg/mL
- mean A at 565 nm (SkBr3 cells; Lapatinib 0.001 μM): 2.203
- mean A at 565 nm (SkBr3 cells; Lapatinib 0.067 μM): 1.707
- mean A at 565 nm (SkBr3 cells; Lapatinib 0.2 μM): 1.314
- mean A at 565 nm (SkBr3 cells; Lapatinib 0.67 μM): 0.708
- mean A at 565 nm (SkBr3 cells; Lapatinib 2 μM): 0.347
- mean A at 565 nm (SkBr3 cells; Lapatinib 6.7 μM): 0.211
- mean A at 565 nm (SkBr3 cells; Lapatinib 20 μM): 0.221
- viability at 0.001 µM (BT474 cells; Homo sapiens, BT-474, 72 h): 100%
- viability at 0.05 µM (BT474 cells; Homo sapiens, BT-474, 72 h): 65.7%
- viability at 0.167 µM (BT474 cells; Homo sapiens, BT-474, 72 h): 52.1%
- viability at 0.5 µM (BT474 cells; Homo sapiens, BT-474, 72 h): 26.9%
- viability at 1.67 µM (BT474 cells; Homo sapiens, BT-474, 72 h): 21.1%
- viability at 5 µM (BT474 cells; Homo sapiens, BT-474, 72 h): 14.1%
- viability at 16.7 µM (BT474 cells; Homo sapiens, BT-474, 72 h): 8%
- viability at 50 µM (BT474 cells; Homo sapiens, BT-474, 72 h): 2.3%
- IC50 (BT474 cells; Homo sapiens, BT-474, read-out: IC50 of drug when cells treated with drug only): 116 nM and 0.067 µg/mL
- mean A at 565 nm (BT474 cells; Lapatinib 0.001 μM): 1.688
- mean A at 565 nm (BT474 cells; Lapatinib 0.167 μM): 0.880
- mean A at 565 nm (BT474 cells; Lapatinib 0.5 μM): 0.453
- mean A at 565 nm (BT474 cells; Lapatinib 5 μM): 0.238
- mean A at 565 nm (BT474 cells; Lapatinib 16.7 μM): 0.136
- mean A at 565 nm (BT474 cells; Lapatinib 50 μM): 0.038
